Data: patent publication US20030215462A1, “Use of UGT inhibitors to increase bioavailability” (priority 2001, published 2003)
Values joined by “and” are separate entries in the source; they are usually repeats but may differ in a detail not shown here. Equal values may be shown once. Each block holds one compound with its values, some of them ahead of it.

Tests used:
Type in all cases: biochemical
[1] = test system: UGT enzymes of human liver microsomes; assay: Inhibition of raloxifene glucuronidation (G1, G2) in human liver microsomes; details: for % of control metabolism (SD, n = 3), raloxifene glucuronide G1 / % of control metabolism (SD, n = 3), raloxifene glucuronide G2: human liver microsomes 250 μg/ml, 15 min
Source text: (§1) Compounds were eluted using a binary solvent gradient system. […] Solvent B was methanol. […] Detection was at 280 nm.

[2] = test system: UGT enzymes of pooled human jejunum microsomes; assay: Inhibition of raloxifene glucuronidation (G1, G2) in pooled human jejunum microsomes; details: jejunum HJ61; inhibitor 50 μM
Experimental: as §1
Standardized incubations utilized […] microsomal protein, 1 mM UDPGA and a 30 min incubation time.

[3] = molecular target: T1, UGT enzymes of human liver microsomes (Homo sapiens, UniProt P16662); assay: Inhibition of zidovudine glucuronidation in human liver microsomes; details: liver lot 062101
T1 construct: residual metabolism (percentage of control), zidovudine glucuronidation; other: liver lot 062101; residual metabolism (percentage of control), zidovudine glucuronidation; residual metabolism (percentage of control)
T1 sequence (P16662 1-529): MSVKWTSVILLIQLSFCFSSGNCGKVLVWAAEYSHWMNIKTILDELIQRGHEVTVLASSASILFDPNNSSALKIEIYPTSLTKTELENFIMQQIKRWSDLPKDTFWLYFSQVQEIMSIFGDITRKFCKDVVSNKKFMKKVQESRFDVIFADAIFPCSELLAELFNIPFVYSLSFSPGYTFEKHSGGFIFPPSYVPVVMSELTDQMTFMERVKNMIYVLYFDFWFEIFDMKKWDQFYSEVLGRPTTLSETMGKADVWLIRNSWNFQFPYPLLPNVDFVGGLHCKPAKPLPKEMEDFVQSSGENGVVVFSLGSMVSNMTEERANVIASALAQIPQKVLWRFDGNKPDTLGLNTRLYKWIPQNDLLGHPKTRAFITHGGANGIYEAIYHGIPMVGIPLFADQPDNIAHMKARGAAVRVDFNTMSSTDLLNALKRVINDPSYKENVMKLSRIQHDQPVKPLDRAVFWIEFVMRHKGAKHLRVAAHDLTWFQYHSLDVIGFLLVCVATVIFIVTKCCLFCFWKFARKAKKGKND
Experimental: Compounds were eluted using a binary solvent gradient system where solvent A was dilute phosphoric acid (pH 3) and solvent B was acetonitrile.
Standardized incubations utilized 500 μM zidovudine substrate, 1 mg/ml microsomal protein, 5 mM UDPGA and a 30 min incubation time. […] Int.

[4] = test system: T2, UGT enzymes of human liver microsomes; assay: Inhibition of labetalol glucuronidation (LG1, LG2) in human liver microsomes; details: labetalol 50 μM
T2 construct: residual metabolism (percentage of control), labetalol LG1; other: labetalol 50 μM; residual metabolism (percentage of control), labetalol LG1; residual metabolism (percentage of control), labetalol LG2; inhi

[5] = test system: UGT enzymes of human liver microsomes; assay: Inhibition of estradiol (E2) glucuronidation in human liver microsomes; details: liver 062101; E2 50 μM; inhibitor 50 μM
Source text: (§2) Compounds were eluted using a binary solvent gradient system where solvent A was dilute phosphoric acid (pH 3) and solvent B was 80:20 acetonitrile-methanol. […] Detection was at 280 nm.

[6] = test system: T3, UGT enzymes of human liver microsomes; assay: as above; details: liver 032101; E2 50 μM; inhibitor 50 μM
T3 construct: residual metabolism (% of control), E2-17-β-D-glucuronide; other: liver 032101; residual metabolism (% of control), E2-17-β-D-glucuronide
Source text: as §2

[7] = test system: T4, UGT enzymes of human liver microsomes; assay: as above; details: liver 032101; E2 50 μM; inhibitor 50 μM
T4 construct: residual metabolism (% of control), E2-3-β-D-glucuronide; other: liver 032101; residual metabolism (% of control), E2-3-β-D-glucuronide
Source text: as §2

[8] = test system: T5, UGT enzymes of human liver microsomes; assay: Inhibition of 2ME2 glucuronidation (MG1, MG2) in human liver microsomes; details: liver 062101, 2ME2 50 μM
T5 construct: other: liver 062101
Source text: as §2

[9] = test system: UGT enzymes of pooled human jejunum microsomes; assay: Inhibition of 2ME2 glucuronidation (MG1) in pooled human jejunum microsomes; details: jejunum HJ61, 2ME2 50 μM
Source text: as §2

[10] = inhibitor 10 μM, raloxifene 50 μM
[11] = inhibitor 25 μM, raloxifene 50 μM
[12] = inhibitor 50 μM, raloxifene 50 μM
[13] = inhibitor 100 μM, raloxifene 50 μM
[14] = inhibitor 500 μM, raloxifene 50 μM
[15] = liver lot 032101, inhibitor 50 μM
[16] = liver lot 062101, inhibitor 50 μM
[17] = liver lot 083000, inhibitor 50 μM
[18] = raloxifene 50 μM, inhibitor 10 μM
[19] = raloxifene 50 μM, inhibitor 25 μM
[20] = raloxifene 50 μM, inhibitor 50 μM
[21] = raloxifene 50 μM, inhibitor 100 μM

SMILES: O=C(O[C@@H]1Cc2c(O)cc(O)cc2O[C@H]1c1cc(O)c(O)c(O)c1)c1cc(O)c(O)c(O)c1 [Gallocatechin gallate]
% of control metabolism (SD, n = 3), raloxifene glucuronide G1 [1, 10]: 80 (6) %
% of control metabolism (SD, n = 3), raloxifene glucuronide G1 [1, 11]: 62 (7) %
% of control metabolism (SD, n = 3), raloxifene glucuronide G1 [1, 12]: 45 (2) %
% of control metabolism (SD, n = 3), raloxifene glucuronide G1 [1, 13]: 20 (1) %
% of control metabolism (SD, n = 3), raloxifene glucuronide G1 [1, 14]: 0 (0) %
% of control metabolism (SD, n = 3), raloxifene glucuronide G2 [1, 10]: 83 (4) %
% of control metabolism (SD, n = 3), raloxifene glucuronide G2 [1, 11]: 64 (4) %
% of control metabolism (SD, n = 3), raloxifene glucuronide G2 [1, 12]: 47 (2) %
% of control metabolism (SD, n = 3), raloxifene glucuronide G2 [1, 13]: 29 (1) %
% of control metabolism (SD, n = 3), raloxifene glucuronide G2 [1, 14]: 0 (0) %
% of control metabolism, raloxifene G1 [1, 15]: 29 (1) %
% of control metabolism, raloxifene G2 [1, 15]: 28 (0) %
% of control metabolism, raloxifene G1 [1, 16]: 40 (3) %
% of control metabolism, raloxifene G2 [1, 16]: 22 (1) %
% of control metabolism, raloxifene G1 [1, 17]: 45 (2) %
% of control metabolism, raloxifene G2 [1, 17]: 47 (2) %
% of control metabolism, raloxifene G1 [1, 18]: 80 (6) %
% of control metabolism, raloxifene G2 [1, 18]: 83 (4) %
% of control metabolism, raloxifene G1 [1, 19]: 62 (7) %
% of control metabolism, raloxifene G2 [1, 19]: 64 (4) %
% of control metabolism, raloxifene G1 [1, 20]: 45 (2) %
% of control metabolism, raloxifene G2 [1, 20]: 47 (2) %
% of control metabolism, raloxifene G1 [1, 21]: 20 (1) %
% of control metabolism, raloxifene G2 [1, 21]: 29 (1) %
% of control metabolism, raloxifene G1 [2]: 10 (0), 10 (0) %
% of control metabolism, raloxifene G2 [2]: 10 (0), 10 (0) %
residual metabolism (percentage of control), zidovudine glucuronidation ([3]; inhibitor 50 μM): 66 (3) %
residual metabolism (percentage of control), zidovudine glucuronidation ([3]; inhibitor 100 μM): 56 (1) % and 59 (3) %
residual metabolism (percentage of control), zidovudine glucuronidation ([3]; inhibitor 200 μM): 49 (1) % and 40 (2) %
residual metabolism (percentage of control), labetalol LG1 ([4]; inhibitor 50 μM): 60 (5) %
residual metabolism (percentage of control), labetalol LG2 ([4]; inhibitor 50 μM): 55 (8) %
residual metabolism (% of control), E2-3-β-D-glucuronide [5]: 33 (2) %
residual metabolism (% of control), E2-17-β-D-glucuronide [5]: 55 (2) %
residual metabolism (% of control), E2-17-β-D-glucuronide [6]: 69 (4) %
residual metabolism (% of control), E2-3-β-D-glucuronide [7]: 24 (1) %
residual metabolism (% of control), 2ME2 MG1 ([8]; inhibitor 25 μM): 33 (1) %
residual metabolism (% of control), 2ME2 MG2 ([8]; inhibitor 25 μM): 73 (1) %
residual metabolism (% of control), 2ME2 MG1 ([8]; inhibitor 50 μM): 21 (2) %
residual metabolism (% of control), 2ME2 MG2 ([8]; inhibitor 50 μM): 61 (1) %
residual metabolism (% of control), 2ME2 MG1 ([8]; inhibitor 100 μM): 9 (1) %
residual metabolism (% of control), 2ME2 MG2 ([8]; inhibitor 100 μM): 36 (1) %
residual metabolism (% of control), 2ME2 MG1 ([9]; inhibitor 10 μM): 69 (3) %
residual metabolism (% of control), 2ME2 MG1 ([9]; inhibitor 25 μM): 51 (2) %
residual metabolism (% of control), 2ME2 MG1 ([9]; inhibitor 50 μM): 31 (1) %
residual metabolism (% of control), 2ME2 MG1 ([9]; inhibitor 100 μM): 9 (1) %

% of control metabolism (SD, n = 3), raloxifene glucuronide G1 [1, 10]: 77 (4) %
% of control metabolism (SD, n = 3), raloxifene glucuronide G1 [1, 11]: 48 (4) %
% of control metabolism (SD, n = 3), raloxifene glucuronide G1 [1, 12]: 37 (3) %
% of control metabolism (SD, n = 3), raloxifene glucuronide G1 [1, 13]: 20 (0) %
% of control metabolism (SD, n = 3), raloxifene glucuronide G1 [1, 14]: 0 (0) %
% of control metabolism (SD, n = 3), raloxifene glucuronide G2 [1, 10]: 73 (4) %
% of control metabolism (SD, n = 3), raloxifene glucuronide G2 [1, 11]: 55 (5) %
% of control metabolism (SD, n = 3), raloxifene glucuronide G2 [1, 12]: 43 (4) %
% of control metabolism (SD, n = 3), raloxifene glucuronide G2 [1, 13]: 24 (2) %
% of control metabolism (SD, n = 3), raloxifene glucuronide G2 [1, 14]: 0 (0) %
% of control metabolism, raloxifene G1 [1, 15]: 47 (4) %
% of control metabolism, raloxifene G2 [1, 15]: 45 (2) %
% of control metabolism, raloxifene G1 [1, 16]: 63 (4) %
% of control metabolism, raloxifene G2 [1, 16]: 37 (2) %
% of control metabolism, raloxifene G1 [1, 17]: 37 (3) %
% of control metabolism, raloxifene G2 [1, 17]: 43 (4) %
% of control metabolism, raloxifene G1 [1, 18]: 77 (4) %
% of control metabolism, raloxifene G2 [1, 18]: 73 (4) %
% of control metabolism, raloxifene G1 [1, 19]: 48 (4) %
% of control metabolism, raloxifene G2 [1, 19]: 55 (5) %
% of control metabolism, raloxifene G1 [1, 20]: 37 (3) %
% of control metabolism, raloxifene G2 [1, 20]: 43 (4) %
% of control metabolism, raloxifene G1 [1, 21]: 20 (0) %
% of control metabolism, raloxifene G2 [1, 21]: 24 (2) %
% of control metabolism, raloxifene G1 [2]: 34 (3) %
% of control metabolism, raloxifene G2 [2]: 40 (3) %
residual metabolism (percentage of control), zidovudine glucuronidation ([3]; inhibitor 50 μM): 80 (1) %
residual metabolism (percentage of control), zidovudine glucuronidation ([3]; inhibitor 100 μM): 67 (1) %
residual metabolism (percentage of control), zidovudine glucuronidation ([3]; inhibitor 200 μM): 60 (2) %
residual metabolism (percentage of control), zidovudine glucuronidation ([3]; inhibitor 500 μM): 28 (1) %
residual metabolism (percentage of control), labetalol LG1 ([4]; inhibitor 100 μM): 74 (1) %
residual metabolism (percentage of control), labetalol LG2 ([4]; inhibitor 100 μM): 86 (2) %
residual metabolism (% of control), E2-3-β-D-glucuronide [5]: 34 (1) %
residual metabolism (% of control), E2-17-β-D-glucuronide [5]: 67 (1) %
residual metabolism (% of control), E2-17-β-D-glucuronide [6]: 83 (0) %
residual metabolism (% of control), E2-3-β-D-glucuronide [7]: 27 (1) %
residual metabolism (% of control), 2ME2 MG1 ([8]; inhibitor 25 μM): 47 (1) %
residual metabolism (% of control), 2ME2 MG2 ([8]; inhibitor 25 μM): 79 (2) %
residual metabolism (% of control), 2ME2 MG1 ([8]; inhibitor 50 μM): 33 (1) %
residual metabolism (% of control), 2ME2 MG2 ([8]; inhibitor 50 μM): 69 (2) %
residual metabolism (% of control), 2ME2 MG1 ([8]; inhibitor 100 μM): 17 (1) %
residual metabolism (% of control), 2ME2 MG2 ([8]; inhibitor 100 μM): 58 (1) %
residual metabolism (% of control), 2ME2 MG1 ([9]; inhibitor 25 μM): 76 (4) %
residual metabolism (% of control), 2ME2 MG1 ([9]; inhibitor 50 μM): 63 (1) %
residual metabolism (% of control), 2ME2 MG1 ([9]; inhibitor 100 μM): 47 (2) %
SMILES: O=C(O[C@@H]1Cc2c(O)cc(O)cc2O[C@@H]1c1ccc(O)c(O)c1)c1cc(O)c(O)c(O)c1 [Epicatechin gallate]
